The source of these data is US9913817B2, “Methods for preventing or reducing colon carcinogenesis” (Nogra Pharma Limited, priority 2008, dated 2018).

Holding throughout (assay type): cell-based
For assay [1], the system named is HCT116 A2.1 cells. Put plainly: EGFP-based mutation rate / replication fidelity assay (Example 3). As for the experimental part: A EGFP-based assay to determine the changes in mutation rate upon incubation with various concentrations of the compounds was used to test whether compounds improve the replication fidelity. Briefly, 1×10^3 EGFP negative HCT116 A2.1 cells were sorted into 24-well plates on a FACS Aria. 24 hours later cells were treated with the compounds for a period of 7 days and the mutant fraction was measured by flow cytometry.

For the next assay, the system named is HCT116 cells. Put plainly: Cell cycle analysis by BrdU staining, HCT116. Particulars: 10 mM-40 mM; 72 hour treatment. On the procedure:
BrdU staining was used to analyze cell cycle changes in HCT116 and HT29 cells upon 72 hour treatment with compound 39. Data represent the mean values of 3 independent experiments (* indicates a p<0.05 compared to control)
(Uptake of a labelled nucleoside into DNA is a usual measure of proliferation.)

Assay [2] deals with HCT116 A2.1 cells. Briefly: EGFP-based mutation rate assay at a (CA)13 repeat (Example 4). Conditions: FIG. 4. On the procedure: A EGFP-based assay similar to Example 3 was used to determine the changes in mutation rate upon incubation with various concentrations of disclosed compounds and to test whether the compounds improve the replication fidelity. A EGFP based assay was used to determine the changes in mutation rate at a (CA)13 repeat upon incubation with various concentrations of the compounds. Briefly, 1×10^3 EGFP negative HCT116 A2.1 cells were sorted into 24-well plates on a FACS Aria. 24 hours later cells were treated with the compounds for a period of 7 days. The total cell number (c) and the EGFP-positive fraction (mutant fraction (MF)) were analyzed by flow cytometry. The mutation rate (m/(CA)13/generation (gen) was estimated by m=MF/(gen+1) and gen=log 2(c/1000×cloning efficiency). The transient mutant (M1) and definitive mutant (M2) cells were distinguished.

Assay [3] concerns superoxide (O2−) released by activated neutrophils (PMN). Put plainly: Superoxide scavenging, O2− assay with PMA-activated neutrophils, 90 min time course (Example 2). Particulars: at the investigated concentrations; 100 nM PMA; measured every 15 min for 90 min; FIG. 2A/2B. As for the experimental part: Compounds 14 and 34 were tested for their potential to scavenge superoxide (O2^−) released by activated neutrophils (PMN) using a standardized O2^− assay, similar to Example 1. Activated neutrophils (PMN) were used as O2^− donors. Briefly, 1×10^6 freshly isolated neutrophils were activated with 100 nM phorbol-myristate-acetate (PMA). The O2^− release was measured every 15 min for a 90 min period by lucigenin amplified chemiluminescence on a luminometer. Either non-activated PMNs or activated PMNs incubated with superoxide dismutase (2000 U/ml, SOD) was used as a control. Experiments were carried out in triplicates

As for `CCOC(Cc1ccc(N)cc1)C(=O)O` (racemic) [compound 39, (±)-2-ethoxy-3-(4′-aminophenyl) propionic acid], the “cell growth (in words)” value in the assay with HCT116 A2.1 cells [1] (20 mM, 7 days) is reported as “reduced cell growth”. Also, in the assay on HCT116 A2.1 cells [1] (20 mM, FIG. 3C, comparable to the effect of aspirin), the “effect on M1 (in words)” value is on record as “increase of M1”. The “effect on mutant fraction M1 or M2 (in words)” value with HCT116 A2.1 cells [1] (7 days, FIG. 3C) was “did not reduce the mutant fraction M1 or M2”. Besides, the “cell cycle distribution (in words)” value in the assay with HCT116 cells is on record as “did not induce a significant change”. Besides, the “number of M1 (transient mutant) cells (in words)” value in the assay with HCT116 A2.1 cells [2] (10 mM up to 40 mM, p<0.05) was “significantly lowered the number of M1 cells”. The “permanent mutant M2 population (in words)” value in the assay on HCT116 A2.1 cells [2] (40 mM) is on record as “significant reduction”.
Turning to `COc1ccc(N)cc1C(=O)NO` [compound 14], the “superoxide scavenging properties (in words)” value in assay [3] is “significant scavenging properties”.
Consider `CC1(C)OC(=O)c2cc(N)ccc2O1` [compound 28], for which the “changes in mutation rate (in words)” value in the assay on HCT116 A2.1 cells [1] (concentrations up to 1 mM, FIG. 3B) is listed as “does not appear to cause significant changes”.
